What was measured:
[1] = Cmax in dog plasma at 10 mg/kg, po measured upto 24 hrs by LC-MS/MS analysis; assay type: ADME, organism-based, Canis lupus familiaris; parameters: time < 24 hrs, dose 10 mg/kg, route po
[2] = MRT in dog plasma at 1 mg/kg, iv measured upto 24 hrs by LC-MS/MS analysis; assay type: ADME, organism-based, Canis lupus familiaris
[3] = Toxicity against CB.17 SCID mouse xenografted with human TMD8 cells assessed as effect on kidney at 100 mg/kg/day, po for 21 consecutive days by H and E staining method; assay type: organism-based; conditions: in vivo, 504 h, time 21 day
[4] = Toxicity against CB.17 SCID mouse xenografted with human TMD8 cells assessed as effect on heart at 100 mg/kg/day, po for 21 consecutive days by H and E staining method; assay type: organism-based; conditions: in vivo, 504 h, time 21 day
[5] = Toxicity against CB.17 SCID mouse xenografted with human TMD8 cells assessed as body weight loss at 50 to 100 mg/kg/day, po for 21 consecutive days; assay type: organism-based; conditions: in vivo, 504 h, dose 50-100 mg/kg/day, time 21 day
[6] = Clearance in dog plasma at 1 mg/kg, iv measured upto 24 hrs by LC-MS/MS analysis; assay type: ADME, organism-based, Canis lupus familiaris; conditions: in vivo
[7] = Cmax in ICR mouse at 10 mg/kg, po measured upto 24 hrs by LC-MS/MS analysis; assay type: ADME, organism-based; parameters: dose 10 mg/kg, time < 24 hrs, route po; conditions: in vivo
[8] = Half life in monkey plasma at 1 mg/kg, iv measured upto 24 hrs by LC-MS/MS analysis; assay type: ADME, organism-based, Macaca fascicularis; conditions: cynomolgus monkey
[9] = AUC (0 to infinity) in dog plasma at 1 mg/kg, iv measured upto 24 hrs by LC-MS/MS analysis; assay type: ADME, organism-based, Canis lupus familiaris; parameters: dose 1 mg/kg, time < 24 hrs, route iv
[10] = Volume of distribution at steady state in monkey plasma at 1 mg/kg, iv measured upto 24 hrs by LC-MS/MS analysis; assay type: ADME, organism-based, Macaca fascicularis; conditions: cynomolgus monkey, read-out: Vdss
[11] = Toxicity against CB.17 SCID mouse xenografted with human TMD8 cells assessed as effect on liver at 100 mg/kg/day, po for 21 consecutive days by H and E staining method; assay type: organism-based; conditions: in vivo, 504 h, time 21 day
[12] = AUC (0 to infinity) in monkey plasma at 10 mg/kg, po measured upto 24 hrs by LC-MS/MS analysis; assay type: ADME, organism-based, Macaca fascicularis; parameters: time < 24 hrs, dose 10 mg/kg, route po; conditions: cynomolgus monkey
[13] = MRT in dog plasma at 10 mg/kg, po measured upto 24 hrs by LC-MS/MS analysis; assay type: ADME, organism-based, Canis lupus familiaris
[14] = AUC (0 to infinity) in ICR mouse at 2 mg/kg, iv measured upto 24 hrs by LC-MS/MS analysis; assay type: ADME, organism-based; parameters: time < 24 hrs, dose 2 mg/kg, route iv; conditions: in vivo
[15] = Half life in dog plasma at 1 mg/kg, iv measured upto 24 hrs by LC-MS/MS analysis; assay type: ADME, organism-based, Canis lupus familiaris
[16] = MRT in monkey plasma at 1 mg/kg, iv measured upto 24 hrs by LC-MS/MS analysis; assay type: ADME, organism-based, Macaca fascicularis; conditions: cynomolgus monkey
[17] = MRT in ICR mouse at 100 mg/kg, po measured upto 24 hrs by LC-MS/MS analysis; assay type: ADME, organism-based; conditions: in vivo
[18] = Oral bioavailability in ICR mouse at 100 mg/kg measured upto 24 hrs by LC-MS/MS analysis; assay type: ADME, organism-based; conditions: in vivo
[19] = Cmax in monkey plasma at 10 mg/kg, po measured upto 24 hrs by LC-MS/MS analysis; assay type: ADME, organism-based, Macaca fascicularis; parameters: time < 24 hrs, dose 10 mg/kg, route po; conditions: cynomolgus monkey
[20] = AUC (0 to infinity) in ICR mouse at 10 mg/kg, po measured upto 24 hrs by LC-MS/MS analysis; assay type: ADME, organism-based; parameters: time < 24 hrs, dose 10 mg/kg, route po; conditions: in vivo
[21] = MRT in monkey plasma at 10 mg/kg, po measured upto 24 hrs by LC-MS/MS analysis; assay type: ADME, organism-based, Macaca fascicularis; conditions: cynomolgus monkey
[22] = Half life in ICR mouse at 2 mg/kg, iv measured upto 24 hrs by LC-MS/MS analysis; assay type: ADME, organism-based; conditions: in vivo
[23] = MRT in ICR mouse at 10 mg/kg, po measured upto 24 hrs by LC-MS/MS analysis; assay type: ADME, organism-based; conditions: in vivo
[24] = Oral bioavailability in ICR mouse at 10 mg/kg measured upto 24 hrs by LC-MS/MS analysis; assay type: ADME, organism-based; conditions: in vivo
[25] = AUC (0 to infinity) in ICR mouse at 100 mg/kg, po measured upto 24 hrs by LC-MS/MS analysis; assay type: ADME, organism-based; parameters: dose 100 mg/kg, time < 24 hrs, route po; conditions: in vivo
[26] = Clearance in ICR mouse at 2 mg/kg, iv measured upto 24 hrs by LC-MS/MS analysis; assay type: ADME, organism-based; conditions: in vivo
[27] = Half life in ICR mouse at 100 mg/kg, po measured upto 24 hrs by LC-MS/MS analysis; assay type: ADME, organism-based; conditions: in vivo
[28] = Volume of distribution at steady state in dog plasma at 1 mg/kg, iv measured upto 24 hrs by LC-MS/MS analysis; assay type: ADME, organism-based, Canis lupus familiaris; conditions: read-out: Vdss
[29] = Cmax in ICR mouse at 100 mg/kg, po measured upto 24 hrs by LC-MS/MS analysis; assay type: ADME, organism-based; parameters: time < 24 hrs, dose 100 mg/kg, route po; conditions: in vivo
[30] = Aqueous solubility of the compound; assay type: physicochemical; conditions: aqueous medium
[31] = AUC (0 to infinity) in monkey plasma at 1 mg/kg, iv measured upto 24 hrs by LC-MS/MS analysis; assay type: ADME, organism-based, Macaca fascicularis; parameters: time < 24 hrs, dose 1 mg/kg, route iv; conditions: cynomolgus monkey
[32] = AUC (0 to infinity) in dog plasma at 10 mg/kg, po measured upto 24 hrs by LC-MS/MS analysis; assay type: ADME, organism-based, Canis lupus familiaris; parameters: time < 24 hrs, dose 10 mg/kg, route po
[33] = Oral bioavailability in monkey plasma at 10 mg/kg measured upto 24 hrs by LC-MS/MS analysis; assay type: ADME, organism-based, Macaca fascicularis; conditions: cynomolgus monkey
[34] = Half life in monkey plasma at 10 mg/kg, po measured upto 24 hrs by LC-MS/MS analysis; assay type: ADME, organism-based, Macaca fascicularis; conditions: cynomolgus monkey
[35] = Clearance in monkey plasma at 1 mg/kg, iv measured upto 24 hrs by LC-MS/MS analysis; assay type: ADME, organism-based, Macaca fascicularis; conditions: cynomolgus monkey, in vivo
[36] = system: TMD8; assay: In vivo antitumor activity against TMD8 cells xenografted in CB.17 SCID mouse assessed as tumor growth inhibition at 100 mg/kg/day, po for 21 consecutive days measured on day 21 by Vernier caliper relative to control; assay type: functional, Homo sapiens; conditions: TMD8, 504 h, time 21 day, read-out: TGI
[37] = Oral bioavailability in dog plasma at 10 mg/kg measured upto 24 hrs by LC-MS/MS analysis; assay type: ADME, organism-based, Canis lupus familiaris
[38] = Half life in dog plasma at 10 mg/kg, po measured upto 24 hrs by LC-MS/MS analysis; assay type: ADME, organism-based, Canis lupus familiaris
[39] = Toxicity against CB.17 SCID mouse xenografted with human TMD8 cells assessed as effect on lung at 100 mg/kg/day, po for 21 consecutive days by H and E staining method; assay type: organism-based; conditions: in vivo, 504 h, time 21 day
[40] = Toxicity against CB.17 SCID mouse xenografted with human TMD8 cells assessed as effect on spleen at 100 mg/kg/day, po for 21 consecutive days by H and E staining method; assay type: organism-based; conditions: in vivo, 504 h, time 21 day
[41] = Half life in ICR mouse at 10 mg/kg, po measured upto 24 hrs by LC-MS/MS analysis; assay type: ADME, organism-based; conditions: in vivo
[42] = MRT in ICR mouse at 2 mg/kg, iv measured upto 24 hrs by LC-MS/MS analysis; assay type: ADME, organism-based; conditions: in vivo

Cmax [1]: 4740 ng/mL | MRT [2]: 2.26 h | clearance [6]: 6.72 mL/min/kg | Cmax [7]: 3960 ng/mL | half-life [8]: 4.31 h | AUC(0-inf) [9]: 2550 ng·h/mL | Vd [10]: 0.34 L/kg | AUC(0-inf) [12]: 53200 ng·h/mL | MRT [13]: 2.71 h | AUC(0-inf) [14]: 1250 ng·h/mL | half-life [15]: 1.65 h | MRT [16]: 3.41 h | MRT [17]: 0.897 h | bioavailability [18]: 91.8% | Cmax [19]: 8520 ng/mL | AUC(0-inf) [20]: 2670 ng·h/mL | MRT [21]: 8.28 h | half-life [22]: 0.427 h | MRT [23]: 0.919 h | bioavailability [24]: 45.6% | AUC(0-inf) [25]: 57200 ng·h/mL | clearance [26]: 27.2 mL/min/kg | half-life [27]: 1.63 h | Vd [28]: 0.55 L/kg | Cmax [29]: 58300 ng/mL | solubility [30]: > 100 mg/mL | AUC(0-inf) [31]: 15700 ng·h/mL | AUC(0-inf) [32]: 15100 ng·h/mL | bioavailability [33]: 27.6% | half-life [34]: 9.14 h | clearance [35]: 1.35 mL/min/kg | bioavailability [37]: 58.9% | half-life [38]: 1.51 h | half-life [41]: 1.31 h | MRT [42]: 0.402 h
SMILES: Cl.Nc1ccccc1NC(=O)c1ccc(CN2CCC/C(=C\c3ccccn3)C2=O)cc1
Activity [3]: Non-Toxic | Activity [4]: Non-Toxic | Activity [5]: Non-Toxic | Activity [11]: Non-Toxic | inhibition in vivo at 100 mg/kg/day [36]: 77% | Activity [39]: Non-Toxic | Activity [40]: Non-Toxic
